Test results reported in patent publication US5629322A, “Cyclic amidine analogs as inhibitors of nitric oxide synthase” (priority 1995, dated 1997).
Where a name gives a salt, the structure may show the parent alone. Read-outs that look alike come from different tables or passages of the source.

What was measured:
[1] = molecular target: ecNOS (Homo sapiens, UniProt P29474); experiment: NOS activity assay, ecNOS (L-[3H]citrulline formation); format: biochemical
Protocol: (§1) Assay Protocol for NOS activity
(§2) NOS activity is measured as the formation of L-[2,3,4,5-^3 H]Citrullinefrom L-[2,3,4,5-^3 H]Arginine. The incubation buffer (100 μL) contained; 100 mM TES, pH 7.5, 5 μM FAD, 5 μM FMN, 10 μM BH4, 0.5 mM NADPH, 0.5 mM DTT, 0.5 mg/mL BSA, 2 mM CaCl2, 10 μg/mL calmodulin (bovine), 1 μM L-Arg, 0.2 μCi L-[2,3,4,5-^3 H]Arg, and the inhibitor in aqueous DMSO (max. 5%). The reaction is initiated by addition of enzyme. Incubations are performed at room temperature for 30 minutes and stopped by the addition of an equal volume of quenching buffer consisting of 200 mM sodium citrate, pH 2.2, 0.02% sodium azide. Reaction products are separated by passing through a cation exchange resin and quantitated as cpm by scintillation counting.

[2] = molecular target: ncNOS (Homo sapiens, UniProt P29475); experiment: biochemical
Chain of ncNOS (P29475 whole entry): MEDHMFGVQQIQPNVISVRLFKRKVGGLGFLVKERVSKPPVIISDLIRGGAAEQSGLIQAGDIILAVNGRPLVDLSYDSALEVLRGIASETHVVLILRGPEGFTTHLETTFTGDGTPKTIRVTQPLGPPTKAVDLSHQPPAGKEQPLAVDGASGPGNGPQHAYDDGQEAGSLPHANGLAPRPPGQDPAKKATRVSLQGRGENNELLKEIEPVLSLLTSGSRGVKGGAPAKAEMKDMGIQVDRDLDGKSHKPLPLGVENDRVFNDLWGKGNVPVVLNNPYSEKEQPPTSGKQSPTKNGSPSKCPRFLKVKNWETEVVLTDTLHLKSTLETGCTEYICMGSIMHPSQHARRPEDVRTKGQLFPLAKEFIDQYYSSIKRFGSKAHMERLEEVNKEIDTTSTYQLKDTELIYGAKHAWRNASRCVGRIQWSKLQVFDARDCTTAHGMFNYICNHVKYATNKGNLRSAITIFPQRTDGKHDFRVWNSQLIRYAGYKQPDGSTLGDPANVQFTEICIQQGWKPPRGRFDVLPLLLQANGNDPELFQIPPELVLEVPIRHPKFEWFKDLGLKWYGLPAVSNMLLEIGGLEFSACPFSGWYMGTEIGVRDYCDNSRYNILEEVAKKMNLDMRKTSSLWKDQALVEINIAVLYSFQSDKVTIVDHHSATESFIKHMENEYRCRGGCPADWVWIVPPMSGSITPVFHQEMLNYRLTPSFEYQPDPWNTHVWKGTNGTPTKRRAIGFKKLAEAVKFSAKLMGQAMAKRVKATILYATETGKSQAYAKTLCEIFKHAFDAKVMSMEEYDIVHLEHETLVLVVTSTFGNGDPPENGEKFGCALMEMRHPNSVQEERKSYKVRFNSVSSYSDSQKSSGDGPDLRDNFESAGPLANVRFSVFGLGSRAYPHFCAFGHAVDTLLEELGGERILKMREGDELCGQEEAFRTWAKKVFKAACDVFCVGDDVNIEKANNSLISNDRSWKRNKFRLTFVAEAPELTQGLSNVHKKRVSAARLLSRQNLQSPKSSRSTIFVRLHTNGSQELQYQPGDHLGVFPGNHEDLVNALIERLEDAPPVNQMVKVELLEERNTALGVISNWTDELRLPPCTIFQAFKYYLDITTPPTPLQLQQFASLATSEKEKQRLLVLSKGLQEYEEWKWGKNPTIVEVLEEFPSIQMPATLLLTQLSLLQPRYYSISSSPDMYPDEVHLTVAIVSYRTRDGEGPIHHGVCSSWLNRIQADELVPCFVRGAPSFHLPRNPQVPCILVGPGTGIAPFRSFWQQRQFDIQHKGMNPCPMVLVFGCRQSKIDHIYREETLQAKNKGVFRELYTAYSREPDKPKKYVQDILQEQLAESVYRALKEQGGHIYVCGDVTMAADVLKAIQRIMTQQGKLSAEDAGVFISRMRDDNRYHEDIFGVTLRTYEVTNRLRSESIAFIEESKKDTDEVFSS

[3] = molecular target: iNOS (Homo sapiens, UniProt P35228); experiment: NOS activity assay, iNOS (L-[3H]citrulline formation); format: biochemical
Protocol: as §1, §2

SMILES | IC50 ([2]; Table 5, read-out: IC50 ncNOS) [µM] | IC50 ([1]; Table 4, read-out: IC50 ecNOS) [µM] | IC50 ([3]; Table 4, read-out: IC50 iNOS) [µM] | IC50 ([1]; Table 5, read-out: IC50 ecNOS) [µM] | IC50 ([3]; Table 5, read-out: IC50 iNOS) [µM] | also measured
N=C1CNC2CCCCC2N1 (centres unmarked) [Table 5: N, H, H, (CH2)4, H, H] | ≤ 50 | – | – | – | – | IC50 [1]: > 50 µM; IC50 [3]: ≤ 10 µM
CCCC1N=C(N)CC1C (centres unmarked) [Table 4: H, CH3, n-C3H7, H, H, 2-Imino-4-methyl-5-propylpyrrolidine hydrochloride] | – | ≤ 50 | ≤ 10 | – | – | IC50 ([2]; Table 4, read-out: IC50 ncNOS): ≤ 10 µM
COC(=O)C1CNC(=N)CC1C (mixture of isomers) [Table 5: CH, H, CH3, CO2CH3, H, H, H, cis/trans-2-Imino-4-methyl-piperidine-5-carboxylic acid, methyl ester, acetic acid salt] | ≤ 50 | – | – | > 50 | ≤ 10 | –
CC1CNC(=N)CC1C (centres unmarked) [Table 5: CH, H, CH3, CH3, H, H, H] | ≤ 1 | – | – | ≤ 1 | ≤ 1 | –
CC(C)C1CN=C(N)C1 (centres unmarked) [Table 4: H, i-C3H7, H, H, H, 2-Imino-4-(2-methyl-ethyl)pyrrolidine hydrochloride] | – | > 50 | ≤ 10 | – | – | IC50 ([2]; Table 4, read-out: IC50 ncNOS): ≤ 50 µM
CC1C(=N)NCC2CCCC21 (stereo not drawn) [Table 5: CH, CH3, (CH2)3, H, H, H, 4-Imino-5-cis-methyl-3-azabicyclo[4.3.0]nonane, hydrochloride] | ≤ 10 | – | – | > 50 | ≤ 10 | –
CC1CCC(N)=NC1 (centres unmarked) [Table 5: CH2, H, H, CH3, H, H, H, 2-Imino-5-methylpiperidine hydrochloride] | – | – | – | – | – | IC50 [1]: ≤ 10 µM; IC50 [3]: ≤ 1 µM
CC1CCC(N)=N1 (centres unmarked) [Table 4: H, H, CH3, H, H, 2-Imino-5-methylpyrrolidine hydrochloride] | – | ≤ 10 | – | – | – | IC50 [2]: ≤ 10 µM; IC50 [3]: ≤ 10 µM
CC1(C)CCC(=N)N1 [Table 4: H, H, (CH3)2, H, H, 2-Imino-5,5-dimethylpyrrolidine hydrochloride] | – | ≤ 50 | ≤ 10 | – | – | IC50 ([2]; Table 4, read-out: IC50 ncNOS): ≤ 10 µM
CCCC1CC(N)=NC1C (centres unmarked) [Table 4: H, n-C3H7, CH3, H, H, 2-Imino-5-methyl-4-propylpyrrolidine hydrochloride] | – | > 50 | ≤ 50 | – | – | IC50 ([2]; Table 4, read-out: IC50 ncNOS): ≤ 50 µM
CCCOC1CCC(=N)NC1 (centres unmarked) [Table 5: CH2, H, H, O-n-C3H7, H, H, H, 2-Imino-5-n-propyloxy-piperidine, acetic acid salt] | ≤ 10 | – | – | ≤ 10 | ≤ 1 | –
CCC[C@@H]1C(=N)NCC[C@@H]1C (relative stereo) [Table 5: CH, n-C3H7, CH3, H, H, H, H, cis-2-Imino-4-methyl-3-n-propyl-piperidine, hydrochloride] | ≤ 50 | – | – | > 50 | ≤ 50 | –
N=C1CNCCN1 [Table 5: N, H, H, H, H, H, H, 2-Iminopiperazine hydrochloride] | ≤ 50 | – | – | > 50 | ≤ 50 | –
CC1CC(=N)NCC1C1CCCCC1 (mixture of isomers) [cis/trans-5-Cyclohexyl-2-imino-4-methyl-piperidine, acetic acid salt] | > 50 | – | – | > 50 | > 50 | –
C[C@H]1CCNC(=N)C1 [Table 5: CH, H, (S)CH3, H, H, H, H, 4(S)-Methyl-2-iminopiperidine hydrochloride] | – | – | – | – | – | IC50 [3]: ≤ 1 µM
C[C@@H]1CCNC(=N)C1 [Table 5: CH, H, (R)CH3, H, H, H, H, 4(R)-Methyl-2-iminopiperidine hydrochloride] | – | – | – | – | – | IC50 [3]: ≤ 1 µM
C[C@H]1CC(=N)NC[C@H]1O [Table 5: CH, H, (S)CH3, (S)OH, H, H, H, 2-Imino-5(S)-hydroxy-4(S)-methyl-piperidine, hydrochloride] | ≤ 1 | – | – | ≤ 10 | ≤ 1 | –
Oc1ccc(CCNC2=NCCC2)cc1O [Table 4: H, H, H, H, C2 H4 Ph-3,4-(OH)2, 1-Aza-2-((3,4-dihydroxyphenyl)ethyl)amino-1-cyclopentene hydrochloride] | – | > 50 | > 50 | – | – | IC50 ([2]; Table 4, read-out: IC50 ncNOS): > 50 µM
CCC1CCC(=N)N1 (centres unmarked) [Table 4: H, H, C2H5, H, H] | – | ≤ 10 | ≤ 50 | – | – | IC50 ([2]; Table 4, read-out: IC50 ncNOS): ≤ 10 µM
CO[C@@H]1CNC(=N)C[C@@H]1C [Table 5: CH, H, (S)CH3, (S)OCH3, H, H, H, hydrochloride] | ≤ 1 | – | – | ≤ 1 | ≤ 1 | –
N=C1CC[C@@H]2CCCC[C@H]2N1 (relative stereo) [Table 5: CH2, H, H, trans-(CH2)4, H, H, trans-Decahydro-2-iminoquinoline hydrochloride] | ≤ 1 | – | – | ≤ 10 | ≤ 1 | –

SMILES | IC50 ([2]; Table 5, read-out: IC50 ncNOS) [µM] | IC50 ([1]; Table 4, read-out: IC50 ecNOS) [µM] | IC50 ([3]; Table 4, read-out: IC50 iNOS) [µM] | IC50 ([1]; Table 5, read-out: IC50 ecNOS) [µM] | IC50 ([3]; Table 5, read-out: IC50 iNOS) [µM] | also measured
N=C1CCC(C(F)(F)F)CN1 (centres unmarked) [Table 5: CH2, H, H, CF3, H, H, H, 2-Imino-5-trifluoro-piperidine] | > 50 | – | – | > 50 | ≤ 10 | –
NC1=N[C@H]2CCCC[C@H]2CC1 (relative stereo) [Table 5: CH2, H, H, cis-(CH2)4, H, H, cis-Decahydro-2-iminoquinoline hydrochloride] | ≤ 1 | – | – | ≤ 50 | ≤ 1 | –
CC1CNC(=N)C(C)C1 (centres unmarked) [Table 5: CH2, CH3, H, CH3, H, H, H, 2-Imino-3,5-dimethylpiperidine hydrochloride] | ≤ 1 | – | – | ≤ 50 | ≤ 50 | –
CC(=O)NCC1CNC(=N)CC1C (mixture of isomers) [Table 5: CH, H, CH3, CH2NHAc, H, H, H, cis/trans-5-Acetamidomethyl-2-imino-4-methyl-piperidine, acetic acid salt] | ≤ 50 | – | – | > 50 | ≤ 50 | –
CC(=O)OC[C@@H]1CCC(=N)N1 [Table 4: H, H, (S)-CH2OAc, H, H, 2-Imino-5-(S)-acetyloxymethylpyrrolidine hydrochloride] | – | > 50 | ≤ 50 | – | – | IC50 ([2]; Table 4, read-out: IC50 ncNOS): ≤ 10 µM
CCC1CC(N)=NC1C (centres unmarked) [Table 4: H, C2H5, CH3, H, H, 2-Imino-4-ethyl-5-methylpyrrolidine hydrochloride] | – | ≤ 10 | ≤ 1 | – | – | IC50 ([2]; Table 4, read-out: IC50 ncNOS): ≤ 1 µM
N=C1CC[C@@H](CO)N1 [Table 4: H, H, (S)-CH2OH, H, H, 2-Imino-5-(S)-hydroxymethylpyrrolidine hydrochloride] | – | > 50 | ≤ 10 | – | – | IC50 ([2]; Table 4, read-out: IC50 ncNOS): ≤ 50 µM
CC(=O)OC[C@H]1CCC(=N)N1 [Table 4: H, H, (R)-CH2OAc, H, H, 2-Imino-5-(R)-acetyloxymethylpyrrolidine hydrochloride] | – | > 50 | > 50 | – | – | IC50 ([2]; Table 4, read-out: IC50 ncNOS): > 50 µM
NC1=Nc2ccccc2CC1 [Table 5: CH2, H, H, (CH)4, H, H, 3,4-Dihydro-2-aminoquinoline hydrochloride] | ≤ 10 | – | – | > 50 | ≤ 50 | –
CC(C)(C)OC(=O)N1CCNC(=N)C1 [Table 5: N, H, CO2-t-C4H9, H, H, H, H, 4-t-Butoxycarbonyl-2-iminopiperazine hydrochloride] | > 50 | – | – | > 50 | ≤ 50 | –
CC1CC(=N)NCC1C(=O)O (mixture of isomers) [Table 5: CH, H, CH3, CO2H, H, H, H, cis/trans-2-Imino-4-methyl-piperidine-5-carboxylic acid, acetic acid salt] | ≤ 10 | – | – | ≤ 50 | ≤ 10 | –
CC(=O)NC1CNC(=N)CC1C (mixture of isomers) [Table 5: CH, H, CH3, NHAc, H, H, H, cis/trans-5-Acetamido-2-imino-4-methyl-piperidine, acetic acid salt] | > 50 | – | – | > 50 | ≤ 50 | –
C[C@@H]1CC(=N)N[C@H](C)C1 (relative stereo) [Table 5: CH, H, CH3, H, CH3, H, H, cis-4,6-Dimethyl-2-imino-piperidine, acetic acid salt] | – | – | – | – | – | IC50 [1]: ≤ 1 µM; IC50 [2]: ≤ 1 µM; IC50 [3]: ≤ 1 µM
CC1CN=C(N)C1C (centres unmarked) [Table 4: CH3, CH3, H, H, H, 2-Imino-3,4-dimethylpyrrolidine hydrochloride] | – | ≤ 10 | ≤ 10 | – | – | IC50 ([2]; Table 4, read-out: IC50 ncNOS): ≤ 1 µM
N=C1CCCCN1 [Table 5: CH2, H, H, H, H, H, H, 2-Iminopiperidine hydrochloride] | – | – | – | – | – | IC50 [1]: ≤ 1 µM; IC50 [3]: ≤ 1 µM
CC1CCN=C(N)C1 (centres unmarked) [Table 5: CH, H, CH3, H, H, H, H, 2-Imino-4-methylpiperidine hydrochloride] | – | – | – | – | – | IC50 [3]: ≤ 1 µM
CCC1N=C(N)CC1C (centres unmarked) [Table 4: H, CH3, C2H5, H, H, 2-Imino-5-ethyl-4-methylpyrrolidine hydrochloride] | – | ≤ 1 | ≤ 1 | – | – | IC50 [2]: ≤ 1 µM
C[C@H]1CCC(=N)NC1 [Table 5: CH2, H, H, (S)CH3, H, H, H, 5(S)-Methyl-2-iminopiperidine hydrochloride] | – | – | – | – | – | IC50 [1]: ≤ 10 µM; IC50 [3]: ≤ 10 µM
C[C@@H]1CCC(=N)NC1 [Table 5: CH2, H, H, (R)CH3, H, H, H, 5(R)-Methyl-2-iminopiperidine hydrochloride] | – | – | – | – | – | IC50 [1]: ≤ 10 µM; IC50 [3]: ≤ 1 µM
O=C(O)C1CCC(=NC2NCCS2)N1 (centres unmarked) [Table 4: H, H, CO2H, H, 2-thiazolidinyl] | – | – | ≤ 50 | – | – | –
CC1CC(N)=NC1C (single isomer, unassigned) [Table 4: H, CH3, CH3(B), H, H] | – | – | ≤ 1 | – | – | IC50 ([2]; Table 4, read-out: IC50 ncNOS): ≤ 1 µM
